Data as given in patent publication US10525044B2, “Treatment for chemotherapy-induced peripheral neuropathy” (priority 2013, dated 2020).
“Also recorded” adds a separate entry of the source.

What was measured:
[1] = tested on: mixed cortical and striatal neurons; experiment: LDH assay (cell membrane integrity) in neuronal cell culture; type: cell-based; settings: MTX 100 μM, 5-FU 25 μM, CDDP 3.5 μM; for LDH increase in culture supernatant (cell membrane leakage): neurons in 25% AO; for LDH increase in culture supernatant (cell membrane leakage) / morphological changes, LDH release, or MTS reduction: 3 days; for morphological changes, LDH release, or MTS reduction: neurons in 100% or 50% AOs, data not shown; for increase in LDH reading: neurons, FIG. 2(b)
Procedure: (§1) Neuronal Cell Culture. Mixed cortical and striatal neurons fromembryonic day 17 male Sprague-Dawley rats (tissue obtained from NIH) were seeded into poly-D-lysine coated 96-well plates at density of 50,000 cells/well and initially cultured at 37° C., 5% CO2, in neurobasal medium (NB) with B27 supplement (Invitrogen) containing full strength of AOs to obtain highly enriched (95%) neurons. Since AOs, including vitamin E, vitamin E acetate, superoxide dismutase (SOD), catalase (CAT), and GSH, are additives to culture medium, reduction of AO concentration in culture medium provides an approach to determine the level of OS involvement in a neurotoxic process. In our study, the culture medium was replaced at a 50% ratio with NB plus B27 minus AOs twice at days 7 and 9 to set AO concentrations as 50% and 25%, respectively. At 16 days in vitro (d.i.v.), a fraction of the culture medium was harvested for lactate dehydrogenase (LDH) assay, and then AO concentration was reduced to 12.5% and cultured for a further 5 hours prior to ending the experiment.
(§2) Cell Insults and Treatments. Determination of concentration for each anticancer drug in our experiments was based on its reported concentration in human cerebral spinal fluid (CSF) in chemotherapy, literature report of its neurotoxicity in culture, and our preliminary in vitro experimental data. At 13 d.i.v., the neuronal cell cultures were insulted with 100 μM of MTX (M9929, Sigma), 25 μM of 5-FU (F6627, Sigma), or 3.5 μM of CDDP (sc-200896, Santa Cruz) for 3 days in absence or presence of PAN 811.Cl.H2O. For ROS examination, the neurons were insulted with both 100 μM of MTX and 25 μM of 5-FU by 15 d.i.v. PAN-811.Cl.H2O was added to cultures to final concentrations of 1.25, 2.5, 5, and 10 μM at the same time as addition of the anticancer drugs. For cancer cell lines, the cells were insulted by the second day of cell seeding with the same concentration of MTX, 5-FU, or CDDP as used in neuronal culture in the absence or presence of 10 μM PAN-811.Cl.H2O for another 3 days.
(§3) Quantitative Assays and Morphological Assessment. Cell membrane integrity and mitochondrial function of either neurons or cancer cells were measured with LDH and 3-(4,5-dimethylthiazol-2-yl)-5-(3-carboxymethoxyphenyl)-2-(4-sulfophenyl)-2H-tetrazolium [MTS] analyses, respectively. The latter has been used to quantify cell survival. For the LDH assay, a mixture of a 35 μL aliquot of culture supernatant and 17.5 μL of Mixed Substrate, Enzyme and Dye Solutions (Sigma) was incubated at room temperature (RT) for 30 minutes. For the MTS assay, 10 μL of MTS reagent (Promega) was added to a culture well containing neurons in 50 μL of medium. The preparations were incubated at 37° C. for 2 hours. The preparations for both assays were then spectrophotometrically measured at 490 nm using a 96-well plate reader (Mode 550, Bio-Rad). Neuronal cell death was morphologically determined based on the integrity of the cell soma and continuity of neuronal processes. The change in number of cancer cells was judged directly by cell density. Cells were photographed under an inverted phase contrast microscope (IX 70, Olympus) using 10× or 20× objective.
(§4) Data Analysis. Data were generated from 4-6 replicate wells, expressed as mean±standard deviation (SD), and statistically evaluated at a significance level of 1% with one factor ANOVA or Student's t-test by using software VASSARSTATS (http://vassarstats.net/) followed by the Tukey HSD test. Figure symbols are as follows: #, P<0.05, and ##, P<0.01, compared with control; *, P<0.05, and **, P<0.01, compared with the insulted group; §§, P<0.01, compared with PAN-811 treated group by Student's t-test.

[2] = tested on: mouse liver cancer cell line BNLT3; experiment: MTS assay in BNLT3 cancer cells; type: cell-based; settings: each agent alone, 3 days: MTX 100 μM, 5-FU 25 μM, CDDP 3.5 μM, PAN-811 10 μM
Procedure: (§5) Cancer Cell Culture. The mouse liver cancer cell line BNLT3 (gift of Dr. Jack Wands, Brown University) and the human lung cancer cell line H460 (ATCC) were seeded into 96-well plates at a density of 4,000 cells/well and cultured at 37° C., 5% CO2, in DMEM (11965, Gibco) supplemented with 10% fetal bovine serum, 20 mM HEPES, 1 mM sodium pyruvate, and […] gentamycin (all reagents came from Gibco).
as §2, §3, §4

[3] = tested on: human lung cancer cell line H460; experiment: Cell density of H460 cells (phase contrast); type: cell-based; settings: each agent alone, 3 days: MTX 100 μM, 5-FU 25 μM, CDDP 3.5 μM, PAN-811 10 μM
Procedure: as §5, §2, §3

[4] = tested on: human lung cancer cell line H460; experiment: MTS assay in H460 cancer cells; type: cell-based; settings: each agent alone, 3 days: MTX 100 μM, 5-FU 25 μM, CDDP 3.5 μM, PAN-811 10 μM
Procedure: as §5, §2, §3, §4

[5] = tested on: mixed cortical and striatal neurons; experiment: MTS assay (cell viability) in neuronal cell culture; type: cell-based; settings: MTX 100 μM, 5-FU 25 μM, CDDP 3.5 μM; for reduction of MTS reading / effect on MTS reading (in words): neurons in 12.5% AO; for effect on MTS reading (in words): FIG. 2(c); for change in MTS level: neurons in 25% AO, 3 days, data not shown
Procedure: as §1, §2, §3, §4

[6] = tested on: mouse liver cancer cell line BNLT3; experiment: Cell density of BNLT3 cells (phase contrast); type: cell-based; settings: each agent alone, 3 days: MTX 100 μM, 5-FU 25 μM, CDDP 3.5 μM, PAN-811 10 μM
Procedure: as §5, §2, §3

[7] = tested on: human lung cancer cell line H460; experiment: LDH assay (membrane integrity) in H460 cancer cells; type: cell-based; settings: each agent alone, 3 days: MTX 100 μM, 5-FU 25 μM, CDDP 3.5 μM, PAN-811 10 μM
Procedure: as §5
as §2, with “[…] […]” for “At 13 d.i.v., the neuronal cell cultures were insulted with 100 μM of MTX (M9929, Sigma), 25 μM of 5-FU (F6627, Sigma), or 3.5 μM of CDDP (sc-200896, Santa Cruz) for 3 days in absence or presence of PAN 811.Cl.H2O. For ROS examination, the neurons were insulted with both 100 μM of MTX and 25 μM of 5-FU by 15 d.i.v.”
as §3, §4

[8] = tested on: mixed cortical and striatal neurons; experiment: Morphological assessment of neuronal cell death; type: cell-based, Sprague-Dawley rats; settings: MTX 100 μM, 5-FU 25 μM, CDDP 3.5 μM; for visible cell damage: neurons in 25% AO, 3 days; for neuronal cell death / loss of neurons (morphology): AO reduced to 12.5% for 5 hours at 16 d.i.v.
Procedure: as §1, §2, §3

[9] = tested on: TRPA1-dependent hypersensitivity; settings: short-term systemic treatment before the cytotoxic drug (bortezomib or oxaliplatin); cited from earlier work
[10] = tested on: oxaliplatin-induced behavioral alterations; settings: in vivo; cited from earlier work

Row | SMILES | LDH increase in culture supernatant (cell membrane leakage) [1] | morphological changes, LDH release, or MTS reduction [1] | increase in LDH reading [1] | reduction of MTS reading [2] [%] | cell density [3] | reduction of MTS reading [4] [%] | reduction of MTS reading [5] [%] | effect on MTS reading (in words) [5] | change in MTS level [5] | cell density / cancer cell number [6] | increase in LDH reading in culture supernatant [7] [%] | visible cell damage [8] | neuronal cell death / loss of neurons (morphology) [8] | prevention of hypersensitivity [9] | antineuropathic effect on oxaliplatin-induced behavioral alterations [10]
1 | O=c1[nH]cc(F)c(=O)[nH]1 [5-FU, fluorouracil] | significant LDH increase | neither MTX at 100 μM, 5-FU at 25 μM, nor CDDP at 3.5 μM caused morphological changes, LDH release, or MTS reduction | significant increases in LDH reading | 84 | robustly decreased the cell density | 57 | 27 | significant reduction in MTS readings | no change in MTS level was detectable | significantly reduced the cell density | 124 | no cell damage was visible | extensive neuronal cell death; also recorded: robust loss of neurons | – | –
2 | [NH2][Pt]([NH2])([Cl])[Cl] [CDDP, cisplatin] | significant LDH increase | neither MTX at 100 μM, 5-FU at 25 μM, nor CDDP at 3.5 μM caused morphological changes, LDH release, or MTS reduction | significant increases in LDH reading | 44 | greatly decreased the cell density | 22 | 66 | significant reduction in MTS readings | no change in MTS level was detectable | caused a decrease in the cell density | 71 | no cell damage was visible | extensive neuronal cell death; also recorded: robust loss of neurons | – | –
3 | CC(C)c1ccc(NC(=O)Cn2cnc3c2c(=O)n(C)c(=O)n3C)cc1 [HC-030031] | – | – | – | – | – | – | – | – | – | – | – | – | – | completely prevent hypersensitivity | –
4 | CN(Cc1cnc2nc(N)nc(N)c2n1)c1ccc(C(=O)N[C@@H](CCC(=O)O)C(=O)O)cc1 [MTX, methotrexate] | significant LDH increase | neither MTX at 100 μM, 5-FU at 25 μM, nor CDDP at 3.5 μM caused morphological changes, LDH release, or MTS reduction | significant increases in LDH reading | 85 | robustly decreased the cell density | 67 | – | did not elicit significant MTS reduction; also recorded: did not significantly affect the MTS reading | no change in MTS level was detectable | severely reduced the cancer cell number | 95 | no cell damage was visible | did not result in significant loss of cell number | – | –
5 | O=C(O)CCCCC1CCSS1 (stereo not drawn) [α-lipoic acid] | – | – | – | – | – | – | – | – | – | – | – | – | – | completely prevent hypersensitivity | –
6 | Cc1c(C)c2c(c(C)c1O)CC[C@@](C)(CCC[C@H](C)CCC[C@H](C)CCCC(C)C)O2 [α-tocopherol] | – | – | – | – | – | – | – | – | – | – | – | – | – | – | about 50%
